Some test systems named below: COLO 205 colon; HCT-15 colon; KM12 colon; UACC-257 melanoma; LOX IMVI melanoma; DU-145 prostate; OVCAR-4 ovarian; SW-620 colon; CAKI-1 renal; SK-MEL-5 melanoma.
What all share (assay): NCI tumour cell line growth inhibition, 48 h

Molecules are shown by their SMILES.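 Compound exposure: 48 hours, 5 concentrations, 96-well plates. Abbreviation: GI50, concentration required for 50% inhibition of growth. TGI marks complete inhibition of growth.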

Consider `COc1cc(OC)c(C(=O)/C=C/c2cccc(C(F)(F)F)c2)c(OC)c1`, for which the GI50 in the assay with COLO 205 colon is 1.06 µM; in the assay on HCT-15 colon, 0.942 µM; with KM12 colon it was 1.79 µM; in the assay on UACC-257 melanoma, 2.06 µM; in the assay with LOX IMVI melanoma, 1.04 µM; in the assay on DU-145 prostate, 1.73 µM. In addition, the GI50 in the assay with OVCAR-4 ovarian was 2.24 µM; in the assay with SW-620 colon, 1.58 µM; in the assay on CAKI-1 renal, 2.17 µM; with SK-MEL-5 melanoma, 1.07 µM. For the same compound, the TGI came out at 2.21 µM in the assay with COLO 205 colon; 2.68 µM with HCT-15 colon; 6.42 µM in the assay with KM12 colon; 7.89 µM in the assay on UACC-257 melanoma; 2.42 µM in the assay on LOX IMVI melanoma; 6.08 µM in the assay on DU-145 prostate. In addition, the TGI in the assay with OVCAR-4 ovarian amounted to 8.57 µM; with SW-620 colon it was 5.01 µM; in the assay with CAKI-1 renal it was 7.22 µM; with SK-MEL-5 melanoma, 2.54 µM.
Consider `CCc1nc(N)nc(N)c1-c1ccc(NC)c([N+](=O)[O-])c1`, for which the TGI in the assay with COLO 205 colon was 34.4 µM; in the assay on HCT-15 colon, above 100 µM; in the assay on KM12 colon, above 100 µM; in the assay on UACC-257 melanoma it was above 100 µM; with LOX IMVI melanoma it was above 100 µM; with DU-145 prostate, above 100 µM. The TGI in the assay on OVCAR-4 ovarian is above 100 µM; in the assay on SW-620 colon, above 100 µM; in the assay on CAKI-1 renal it was above 79 µM; in the assay with SK-MEL-5 melanoma, 29.1 µM.
Consider `Nc1ccccc1C#C/C=C\C#Cc1ccccc1N`, for which the GI50 with COLO 205 colon was 31.3 µM; in the assay with HCT-15 colon, 14.1 µM; in the assay with KM12 colon it was 3.26 µM; in the assay on UACC-257 melanoma, 41.3 µM; in the assay on LOX IMVI melanoma it was 17.9 µM; in the assay with DU-145 prostate, 26.8 µM. For the same compound, the GI50 is 34.2 µM in the assay on OVCAR-4 ovarian, 2.91 µM in the assay with SW-620 colon, 6.86 µM with CAKI-1 renal and 1.95 µM with SK-MEL-5 melanoma. In addition, the TGI is above 100 µM in the assay on COLO 205 colon; 33.3 µM with HCT-15 colon; 27.6 µM with KM12 colon; above 100 µM in the assay with UACC-257 melanoma; 33.7 µM in the assay on LOX IMVI melanoma; above 100 µM in the assay with DU-145 prostate. The TGI in the assay on OVCAR-4 ovarian was above 100 µM; in the assay on SW-620 colon, 18.4 µM; in the assay on CAKI-1 renal, 39 µM; with SK-MEL-5 melanoma, 17.5 µM.
Consider `CCCC(CCC)NCC(O)c1cc(-c2ccc(C(F)(F)F)cc2)nc(C(F)(F)F)c1` (stereo not given), for which the GI50 was 2 µM in the assay with COLO 205 colon; 1.77 µM in the assay with HCT-15 colon; 1.93 µM with KM12 colon; 1.8 µM in the assay with UACC-257 melanoma; 1.53 µM in the assay on LOX IMVI melanoma; 1.94 µM in the assay on DU-145 prostate. In addition, the GI50 was 1.83 µM in the assay with OVCAR-4 ovarian, 1.57 µM in the assay with SW-620 colon, 1.94 µM with CAKI-1 renal and 1.73 µM in the assay on SK-MEL-5 melanoma. Moreover, the TGI in the assay with COLO 205 colon stood at 3.63 µM; in the assay with HCT-15 colon it was 3.53 µM; in the assay with KM12 colon, 3.42 µM; with UACC-257 melanoma it was 3.45 µM; in the assay on LOX IMVI melanoma, 2.97 µM; in the assay on DU-145 prostate, 3.39 µM. Further, the TGI in the assay on OVCAR-4 ovarian stood at 3.32 µM; in the assay on SW-620 colon, 3.05 µM; in the assay on CAKI-1 renal, 3.98 µM; in the assay with SK-MEL-5 melanoma it was 3.1 µM.
`CN1CCc2nc(N)nc(-c3nc(N)nc4c3CN(C)CC4)c2C1`: the TGI in the assay with COLO 205 colon, with HCT-15 colon, in the assay on KM12 colon, in the assay with UACC-257 melanoma, with LOX IMVI melanoma and in the assay on DU-145 prostate was above 100 µM each time. Moreover, the TGI in the assay on OVCAR-4 ovarian, in the assay on SW-620 colon, in the assay on CAKI-1 renal and with SK-MEL-5 melanoma was above 100 µM throughout.
With `Cc1cc2ncnn2cc1Nc1ncc2c(n1)n(C1CCOCC1)c(=O)n2C`, the GI50 was 4.93 µM in the assay with COLO 205 colon; 8.23 µM with HCT-15 colon; 14.5 µM in the assay on KM12 colon; 7.52 µM in the assay on UACC-257 melanoma; 5.92 µM in the assay on LOX IMVI melanoma; 6.92 µM in the assay on DU-145 prostate. The GI50 in the assay on OVCAR-4 ovarian is 3.94 µM; in the assay on SW-620 colon it was 18.1 µM; in the assay on CAKI-1 renal it was 2.88 µM; with SK-MEL-5 melanoma it was 14 µM. The TGI in the assay with COLO 205 colon was above 100 µM; in the assay on HCT-15 colon, above 100 µM; with KM12 colon, above 100 µM; with UACC-257 melanoma it was 72.5 µM; in the assay with LOX IMVI melanoma it was above 100 µM; in the assay with DU-145 prostate, above 100 µM. Also, the TGI in the assay with OVCAR-4 ovarian is 42.9 µM; in the assay on SW-620 colon, above 100 µM; with CAKI-1 renal, 52.2 µM; in the assay with SK-MEL-5 melanoma it was 29.2 µM.
`Cc1ccc(NC(=O)c2cccc(C(C)(C)C#N)c2)cc1Nc1ccc2ncn(C)c(=O)c2c1`: the GI50 is 0.0257 µM with COLO 205 colon; 3.11 µM in the assay with HCT-15 colon; 1.66 µM in the assay with KM12 colon; 0.0405 µM with UACC-257 melanoma; 0.0585 µM in the assay with LOX IMVI melanoma; 5.66 µM in the assay on DU-145 prostate. The GI50 in the assay on OVCAR-4 ovarian is 3.9 µM; with SW-620 colon, 1.01 µM; in the assay with CAKI-1 renal it was 2.96 µM; in the assay with SK-MEL-5 melanoma it was 1.26 µM. Moreover, the TGI in the assay with COLO 205 colon was 92.2 µM; in the assay on HCT-15 colon it was above 100 µM; in the assay on KM12 colon, above 100 µM; with UACC-257 melanoma it was above 100 µM; in the assay with LOX IMVI melanoma it was above 67.5 µM; in the assay on DU-145 prostate, above 100 µM. Further, the TGI with OVCAR-4 ovarian is above 100 µM; in the assay with SW-620 colon it was above 100 µM; in the assay on CAKI-1 renal, above 100 µM; in the assay with SK-MEL-5 melanoma, 20 µM.
As for `CC(C)c1c(O)c(O)c2c(c1O)C(=O)C(O)=C1C(C)(C)CCC[C@@]12C`, the TGI in the assay with COLO 205 colon came to 3.6 µM; with HCT-15 colon, 13.2 µM; in the assay with KM12 colon, 12.2 µM; in the assay with UACC-257 melanoma, 8.61 µM; in the assay on LOX IMVI melanoma, 13.8 µM; in the assay with DU-145 prostate it was 18.1 µM. The TGI was 16.7 µM in the assay on OVCAR-4 ovarian, 11.8 µM with SW-620 colon, 6.34 µM with CAKI-1 renal and 10.8 µM in the assay on SK-MEL-5 melanoma.
Take `O=C(Nc1n[nH]c2cc(-c3ccccc3)ccc12)C1CC1`: the GI50 was 12.4 µM in the assay with COLO 205 colon; 4.03 µM in the assay with HCT-15 colon; 2.11 µM in the assay on KM12 colon; above 25 µM in the assay on UACC-257 melanoma; 16 µM in the assay with LOX IMVI melanoma; 9.28 µM in the assay on DU-145 prostate. Besides, the GI50 in the assay on OVCAR-4 ovarian was above 25 µM; in the assay with SW-620 colon it was 4.77 µM; with CAKI-1 renal it was 9.36 µM; with SK-MEL-5 melanoma it was 8.75 µM. Further, the TGI with COLO 205 colon, with HCT-15 colon, in the assay on KM12 colon, in the assay on UACC-257 melanoma, with LOX IMVI melanoma and in the assay with DU-145 prostate was above 25 µM throughout. Also, the TGI in the assay with OVCAR-4 ovarian, with SW-620 colon, in the assay on CAKI-1 renal and in the assay on SK-MEL-5 melanoma was above 25 µM in each case.

The values above are taken from PubChem BioAssay (NCI).
